Measured values as given in US10933068B2, “Modulators of DUX4 for regulation of muscle function” (GENEA BIOCELLS USA (HOLDINGS), INC., priority 2016, dated 2021).

Columns and labels:
[1] = tested on: normal (Genea016) and FSHD-affected (Genea049 and Genea050) cell lines; assay: Timing of compound contact: cell counts; format: cell-based, human
Protocol: (§1) Briefly, stem cell lines were cultured in commercially available media, mTeSR (Stem Cell Technologies) or M2 (Genea Biocells) and dissociated into single cells using Passaging Solution (Genea Biocells). Cells were plated in Myogenic Induction Medium to induce myogenic differentiation and incubated at 37° C. and 5% CO2 for 7 to 10 days while performing media changes every other day. Once confluent, cells were dissociated into single cells using Passaging Solution and replated in Myoblast Medium (Genea Biocells) while performing media changes every other day. After 7-10 days the medium was switched to Myotube Medium (Genea Biocells) without any further media changes. After 4-7 days many multi-nucleated myotubes were observed and the cells were analyzed using a suitable assay.
(§2) In another example, normal (Genea016) and FSHD-affected (Genea049 and Genea050) cell lines were differentiated according to Example 1. A DNA methyltransferase inhibitor (Compound #1) (ASK10) or a histone methyltransferase inhibitor (Compound #2) (ASK19) was added for 24 hours either at the beginning of the myoblast stage (Group 1) or at the end of the myoblast stage (Group 2). Cells were further differentiated to myotubes and analyzed 7 days later at the end of the myotube stage (see FIG. 2). Effects on cell counts (FIGS. 11A and 11B) and MF20-positive myotubes (FIGS. 12A and 12B) were assessed.

[2] = tested on: FSHD-affected Gen049 human Embryonic Stem Cells (hESCs); assay: ASK10 cytotoxicity in DUX4-GFP induction experiments; format: cell-based; settings: FIG. 11A cited
Description: Precursors were then converted to myoblasts by culture in Stage 2 Medium for 7 days with media changes every second day until confluence. […] After treatment, confluent myoblasts were switched to Stage 3 Myotube Medium (Genea Biocells). Cells were imaged hourly for phase and DUX4-GFP reporter fluorescence with the Incucyte live cell imaging system (Essen Bioscience) and Incucyte analysis software reported GFP+ events/mm2. […] Nuclei were quantified using the In Cell 6000 imaging and analysis suite.

[3] = tested on: Genea049 reporter cell line; assay: Cell death / overall cell numbers by video microscopy; format: cell-based, human; settings: 24 hours pulse at the beginning of the myoblast stage
Protocol: In another example, Genea049 reporter cell line was differentiated according to Example 1 and the compounds were added for 24 hours at the beginning of the myoblast stage. Cells were further differentiated to myotubes (see FIG. 2) and analyzed continuously by video fluorescence microscopy using an Incucyte Zoom instrument (Essen Bioscience).

[4] = tested on: Normal cell lines (Genea 002 and Genea 015) and an FSHD-affected cell line (Genea 096); assay: Phenotypic marker screen (Example 2): cell count / toxicity; format: cell-based, human; settings: compound added for 24 hours; for toxicity (cell count): analyzed at the end of the myotube stage, cell lines tested overall
Protocol: as §1, with “changes.” for “changes. After 4-7 days many multi-nucleated myotubes were observed and the cells were analyzed using a suitable assay.”
In one example, experiments are set up according to Example 1 with cells being cultured in collagen 1-coated optical bottom 96-well plates. At the end of the culture period cells are fixed with 4% formalin and immunofluorescence stained for DUX4, Ki67, MyoD and/or MF20 or MHC. […] Staining with MF20 or MHC is used to visualize myotube morphology. High-content screening is performed to quantitatively measure the proportion of DUX4, Ki67 and MyoD-positive cells as well as myotube diameter and the number of nuclei per myotube.
(§3) Normal cell lines (Genea 002 and Genea 015) and an FSHD-affected cell line (Genea 096) were cultured and differentiated according to Example 1. Compounds were added for 24 hours either at the beginning of the myoblast stage or at the end of the myoblast stage. Cells were further differentiated to myotubes and analyzed 7 days later at the end of the myotube stage (see FIG. 2) by immunofluorescence staining for MyoD, Ki67 and MF20.

DUX4-GFP reporter [5] = assay: Chemically induced DUX4-GFP reporter induction (ASK10 and analogs); format: cell-based, human
Description: Cells were transduced with a lentivirus coding for a synthetic DUX4-responsive promoter driving a nuclear turboGFP reporter gene ([…] et al., 2015) and selected using G418 antibiotic (Thermo Fisher). Myogenic differentiation was induced using the Genea Biocells muscle differentiation protocol (Caron et al., 2016). […] Media was changed every other day for 10 days. Myogenic precursors were then re-seeded by treatment with Passaging Solution (Genea Biocells) followed by Neutralizing Solution (Genea Biocells), were pelleted, and were plated at 2500 cells/cm2 in Stage 2 Myoblast Medium (Genea Biocells). […] After treatment, confluent myoblasts were switched to Stage 3 Myotube Medium (Genea Biocells). Cells were imaged hourly for phase and DUX4-GFP reporter fluorescence with the Incucyte live cell imaging system (Essen Bioscience) and Incucyte analysis software reported GFP+ events/mm2. […] Nuclei were quantified using the In Cell 6000 imaging and analysis suite. The system as described herein can be used as a sensitive low-, medium- or high-throughput screening assay to identify compounds that suppress DUX4 following an experimental procedure as outlined in FIG. 19. […] Test compounds are added either at the beginning of differentiation stage 2 or stage 3 and may be present throughput the experiment.

[6] = tested on: DUX4 reporter in the FSHD-affected Genea049 reporter cell line; assay: DUX4 reporter, time-lapse video fluorescence microscopy; format: cell-based, human; settings: added for 24 hours at the beginning of the myoblast stage; analyzed continuously
Protocol: (§4) Lentivirus constructs were used to stably integrate a DUX4 reporter into human embryonic stem cell lines (FIG. 5). Cells were plated in collagen I-coated 12-well plates (Corning BIOCOAT™-Cat #354500) in M2 hESC maintenance medium (Genea Biocells). Since cell lines grow at different rates and may optimally transduce at distinct cell densities, each line was plated at four different cell densities and transduced for 2 hours using a vector preparations diluted at 1:20 (50 ul/ml) in M2 medium containing 8 ug/ml polybrene. A pilot “kill curve” was established using the same non-transfected cell lines to help define the baseline antibiotic concentration required during the selection process. Based on the results, all transduced cells were selected with 300 ug/ml of G418 for at least 10 days. The antibiotic selected cells were further expanded in M2 (2× T175 flasks for each cell line) and samples were cryopreserved as stocks of 0.5 to 1×10^6 cells/vial.
In another example, experiments are set up according to Example 1 with FSHD-affected DUX4 reporter cells being cultured in collagen I-coated 96-well plates. […] The cells are continuously observed by time-lapse video microscopy (IncuCyte Zoom, Essen Bioscience) and the number of GFP-positive (DUX4-expressing) nuclei are detected and quantified throughout the culture period. […]

[7] = tested on: normal (Genea016) and FSHD-affected (Genea049 and Genea050) cell lines; assay: Timing of compound contact: MF20-positive myotubes; format: cell-based, human; settings: 24 hours treatment, analyzed at the end of the myotube stage
Protocol: as §1, §2

[8] = tested on: DUX4 reporter in the FSHD-affected Genea049 reporter cell line; assay: DUX4 reporter, high-content imaging; format: cell-based, human; settings: added for 24 hours at the end of the myoblast stage; analyzed 7 days later
Protocol: as §4
In another example, Genea049 reporter cell line was differentiated according to Example 1 and the compounds were added for 24 hours at the end of the myoblast stage. Cells were further differentiated to myotubes and analyzed 7 days later at the end of the myotube stage (see FIG. 2) by fixation, counterstaining nuclei with Hoechst and visualizing nuclei and the reporter by high-content imaging.

DUX4-GFP reporter [9] = assay: Rescue of ASK10- / ASK10 analog-induced DUX4-GFP by ASK19 pre-treatment; format: cell-based, human
Protocol: Genea's FSHD-affected Gen049 human Embryonic Stem Cells (hESCs) were cultured on geltrex (Thermo Fisher) using the feeder-free mTeSR system (StemCell Technologies). Cells were transduced with a lentivirus coding for a synthetic DUX4-responsive promoter driving a nuclear turboGFP reporter gene (Rickard et al., 2015) and selected using G418 antibiotic (Thermo Fisher). Myogenic differentiation was induced using the Genea Biocells muscle differentiation protocol (Caron et al., 2016). Reporter stem cells were treated with Accutase (StemCell Technologies) and plated as single cells at 5200 cells/cm2, then changed to Stage 1 Myogenic Induction Medium (Genea Biocells). Media was changed every other day for 10 days. Myogenic precursors were then re-seeded by treatment with Passaging Solution (Genea Biocells) followed by Neutralizing Solution (Genea Biocells), were pelleted, and were plated at 2500 cells/cm2 in Stage 2 Myoblast Medium (Genea Biocells).
In rescue experiments, Stage 2 Day 1 cells were then treated with either 1 uM ASK19 or DMSO vehicle for 24 hours. Precursors were then converted to myoblasts by culture in Stage 2 Medium for 7 days with media changes every second day until confluence. Myoblasts were passaged and seeded at 9000 cells/cm2 in 96 well format, allowed to grow to confluence, and treated in Stage 2 Medium for indicated time (0-48 hours) with 0.01 uM-3 uM of ASK10, ASK10 analog, DMSO vehicle, or media only (FIGS. 15A-15B). After treatment, confluent myoblasts were switched to Stage 3 Myotube Medium (Genea Biocells). Cells were imaged hourly for phase and DUX4-GFP reporter fluorescence with the Incucyte live cell imaging system (Essen Bioscience) and Incucyte analysis software reported GFP+ events/mm2. After imaging, cells were fixed in 10% Formalin (Thermo Fisher) for 15 minutes and stained for 2 hours using PBS (Invitrogen) with 5% BSA (Thermo Fisher), 0.25% Triton-X (Thermo Fisher), and 1:5000 Hoechst (Thermo Fisher) DNA dye. Nuclei were quantified using the In Cell 6000 imaging and analysis suite.

[10] = tested on: Normal cell lines (Genea 002 and Genea 015) and an FSHD-affected cell line (Genea 096); assay: Phenotypic marker screen (Example 2): myogenesis, MF20 and myotube length; format: cell-based, human; settings: compound added for 24 hours
Protocol: as §1, with “changes.” for “changes. After 4-7 days many multi-nucleated myotubes were observed and the cells were analyzed using a suitable assay.”
In one example, experiments are set up according to Example 1 with cells being cultured in collagen 1-coated optical bottom 96-well plates. […] High-content screening is performed to quantitatively measure the proportion of DUX4, Ki67 and MyoD-positive cells as well as myotube diameter and the number of nuclei per myotube.
as §3, with “Compounds were added for 24 hours either at the beginning of the myoblast stage or at the end of the myoblast stage.” left out

[11] = tested on: myotubes from FSHD-affected cell lines; assay: Chaetocin toxicity, total nuclei count; format: cell-based, human; settings: at 50-100 nM
Protocol: (§5) In myotubes from FSHD-affected cell lines DUX4 expression was observed by immunofluorescence staining using DUX4 E5-5 antibody, either spontaneously or by transfecting cells with a DUX4 expression vector (FIG. 3). In some cases, the expression of DUX4 in myogenic cells may be a rare event. Thus, to increase the assay window and sensitivity, chaetocin was used to increase the number of cells expressing DUX4 (FIG. 4A). […] In some examples, compounds may be screened in the presence of 50-200 nM chaetocin, a compound described to result in elevated levels of DUX4 expression in human myoblast cultures (FIG. 2).

DUX4 expression = assay: Chaetocin induction of DUX4 expression, immunofluorescence staining; format: cell-based, human; settings: myotubes from FSHD-affected cell lines, DUX4 E5-5 antibody
Protocol: as §1, §5

SMILES: Nc1ncn([C@H]2C[C@H](O)[C@@H](CO)O2)c(=O)n1 [ASK10, decitabine]
- toxicity, normal versus FSHD-affected myoblasts ([1]; 24 hours treatment): much more toxic for normal myoblasts than for FSHD-affected myoblasts
- toxicity (cell counts), FSHD ([1]; added at the end of the myoblast stage (Group 2), FSHD): not toxic
- toxicity (cell counts), normal ([1]; added at the end of the myoblast stage (Group 2), normal): only mildly toxic
- toxicity (cell counts) ([1]; added for 24 hours at the beginning of the myoblast stage (Group 1)): significant toxicity at higher doses
- cytotoxicity [2]: did not display any noticeable cytotoxicity
- time of cell death after the compound had been removed [3]: 6 to 7 days
- toxicity (cell count) [4]: highly toxic at higher doses
- toxicity to FSHD-affected cells ([4]; FSHD-affected cells (Genea 096)): less so
- EC50 (DUX4-GFP reporter [5]; Homo sapiens, DUX4-GFP cell number per well, read-out: EC50 at which the most significant DUX4 expression induction was detected): ≥ 1000 nM
- DUX4 expression activation versus vehicle control (DUX4-GFP reporter [5]; about 48 hours post-exposure): 12-15 fold
- time at which DUX4 induction plateaus (DUX4-GFP reporter [5]; post-exposure): about 120 hours

SMILES: CC[C@H](C)n1cc(C)c2c(C(=O)NCc3c(C)cc(C)[nH]c3=O)cc(-c3ccc(N4CCNCC4)nc3)cc21 [ASK19, GSK126]
- DUX4-positive cells [6]: suppressed DUX4 expression and/or function
- toxicity (cell counts) ([1]; any of the cell lines under any treatment regimen): not toxic
- MF20-positive myotubes (myogenesis) [7]: dose-dependent increase
- DUX4-positive cells [8]: no effect
- EC50 (DUX4-GFP reporter [9]; ASK10- and ASK10-15-induced, tentative, read-out: EC50 of rescue of induced DUX4-GFP production): 250 to 500 nM
- GFP+ events over time, ASK19/ASK10 curve (DUX4-GFP reporter [9]; ASK19 pre-treatment then ASK10, FIG. 18): extends along the bottom of the graph
- GFP+ events over time, ASK19/ASK10-15 curve (DUX4-GFP reporter [9]; ASK19 pre-treatment then ASK10-15, FIG. 18): extends along the bottom of the graph
- rescue of ASK10- and ASK10 analog-induced DUX4 activation (DUX4-GFP reporter [9]; pre-treatment with ASK19): rescues
- myogenesis, cells expressing MF20 ([10]; analyzed at the end of the myotube stage): more MF20-positive cells
- myotube length ([10]; all cell lines tested): longer myotubes
- toxicity (cell count) [4]: not toxic

SMILES: CN1C(=O)[C@@]23C[C@]4([C@]56C[C@@]78SS[C@@](CO)(C(=O)N7[C@H]5Nc5ccccc56)N(C)C8=O)c5ccccc5N[C@@H]4N2C(=O)[C@]1(CO)SS3 [chaetocin]
- toxicity [11]: only mild toxicity
- chaetocin concentration found to induce DUX4 expression (DUX4 expression): 50 to 100 nM
